According to patent US9840478B2 (MERCK SHARP & DOHME CORP., priority 2013, dated 2017):
Read-outs that look alike come from different tables or passages of the source.

Tests used:
[1] = molecular target: T1, wildtype HIV-1 protease (Human immunodeficiency virus type 1 group M subtype B, UniProt P04585); assay: Assay for inhibition of microbial expressed HIV protease (Pepcleav); type: biochemical; details: wildtype HIV-1 protease expressed in E. coli; peptide substrate; mean of at least two independent experiments
T1 construct: preincubated with the HIV-1 protease (wild type) enzyme in assay buffer; made in house; host or cells: Escherichia coli
Procedure: Assay for Inhibition of Microbial Expressed HIV Protease (“Pepcleav”)
Studies of the inhibition of the wildtype HIV-1 protease (which was expressed in Escherichia coli) were carried out with a peptide substrate [Val-Ser-Gln-Asn-(βnaphtyl)Ala-Pro-Ile-Val]. The inhibitor is first preincubated with the HIV-1 protease (wild type) enzyme in assay buffer (50 mM sodium acetate, pH 5.5, 100 mM NaCl, and 0.1% BSA) for 30 minutes at room temperature. Substrate is added to 400 micromolar in a total volume of 20 microliters containing 20 picomolar HIV-1 protease (final) and the reaction is incubated for 1 hour at 30° C. The reaction is quenched with the addition of formic acid and indinavir to 0.012% and 150 nM final concentrations, respectively. The product formation is determined after separation of product and substrate on a Zorbax Eclipse XDB-C18 column connected to an API 4000 mass spectrometer (Applied Biosystems) with multiple reaction monitoring (transitions were 644.5/428.9 and 615.4/422.2 (M1/M3) for product and indinavir respectively). The extent of inhibition of the reaction is determined from the peak area of the products. Analysis of the products, independently synthesized, provided quantitation standards and confirmation of the product composition.

[2] = tested on: HIV-1 (H9IIIB strain); assay: Cell-based HIV infection assay using a reporter (Cell-Based), MT4-GFP cells; details: 50% normal human serum, mean of at least two independent experiments, read-out: Cell-based IP
Method in brief: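 IC50 from 4-parameter dose-response of % viral growth inhibition, using the 48 h/24 h infected-cell ratio scaled between DMSO and a protease/integrase/NNRTI triple-drug control. Assay used MT4 cells with HIV-LTR-GFP reporter, pre-infected 24 h with HIV-1 H9IIIB, in 50% normal human serum.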

[3] = Human immunodeficiency virus 1, MT4-GFP cells infected with HIV-1 H9IIIB

Compound	IC50 [1]	IC50 [2, 3]	also measured
CS(=O)(=O)N1CCNC[C@H]1CCc1c(F)cncc1NC(=O)[C@@H](N)C(c1ccc(F)cc1)c1ccc(F)cc1 [Example 2, 2S-Amino-3,3-di-(4-fluorophenyl)-N-(5-fluoro-4-(2-(1-methylsulfonylpiperazin-2-yl)ethyl)pyridin-3-yl)propanamide]	1400 nM	–	–
N[C@H](C(=O)Nc1cncc(F)c1CCC1CNCCN1S(=O)(=O)Cc1ccccc1)C(c1ccc(F)cc1)c1ccc(F)cc1 (stereo partly drawn) [Example 21, N-(4-{2-[1-(benzylsulfonyl)piperazin-2-yl]ethyl}-5-fluoropyridin-3-yl)-4-fluoro-β-(4-fluorophenyl)-L-phenylalaninamide]	3.4 nM	–	–
N[C@H](C(=O)Nc1cncc(F)c1CC[C@@H]1CNCCN1S(=O)(=O)c1ccccc1)C(c1ccc(F)cc1)c1ccc(F)cc1 [Example 23, (S)-2-amino-N-(5-fluoro-4-(2-((R)-1-(phenylsulfonyl)piperazin-2-yl)ethyl)pyridin-3-yl)-3,3-bis(4-fluorophenyl) propanamide]	10 nM	–	–
Nc1ccc(S(=O)(=O)N2CCNC[C@@H]2CCc2c(F)cncc2NC(=O)[C@@H](N)C(c2ccc(F)cc2)c2ccc(F)cc2)cc1 [Example 24, (S)-2-amino-N-(4-(2-((S)-1-((4-aminophenyl)sulfonyl)piperazin-2-yl)ethyl)-5-fluoropyridin-3-yl)-3,3-bis(4-fluorophenyl) propanamide]	0.2 nM	–	–
COC(=O)N[C@H](C(=O)Nc1cccc(F)c1CC[C@H]1CNCC2(CC2)N1S(=O)(=O)c1ccccc1)[C@@H](c1ccc(Cl)cc1)C1CCOCC1 [Example 369, ((1R,2S)-1-(4-chlorophenyl)-3-((3-fluoro-2-(2-((S)-4-(phenylsulfonyl)-4,7-diazaspiro[2.5]octan-5-yl)ethyl)phenyl)amino)-3-oxo-1-(tetrahydro-2H-pyran-4-yl)propan-2-yl)carbamate]	–	11 nM	–
C[C@@H]1C[C@H]([C@H](c2ccc(F)cc2)[C@H](N)C(=O)Nc2cccc(F)c2CC[C@H]2CNC[C@@H](C)N2S(=O)(=O)c2ccccc2)C[C@H](C)O1 [Example 370, (2S,3R)-2-amino-3-((2R,4r,6S)-2,6-dimethyltetrahydro-2H-pyran-4-yl)-N-(3-fluoro-2-(2-((2S,6R)-6-methyl-1-(phenylsulfonyl)piperazin-2-yl)ethyl)phenyl)-3-(4-fluorophenyl)propanamide]	–	7.5 nM	–
C[C@@H]1C[C@H]([C@H](c2ccc(F)cc2)[C@H](N)C(=O)Nc2cccc(F)c2CC[C@H]2CNC[C@@H](C)N2S(=O)(=O)c2ccc(F)cc2)C[C@H](C)O1 [Example 371, (2S,3R)-2-amino-3-((2R,4r,6S)-2,6-dimethyltetrahydro-2H-pyran-4-yl)-N-(3-fluoro-2-(2-((2S,6S)-1-((4-fluorophenyl)sulfonyl)-6-methylpiperazin-2-yl)ethyl)phenyl)-3-(4-fluorophenyl)propanamide]	–	9.6 nM	–
N[C@H](C(=O)Nc1cccc(F)c1CC[C@H]1CNCCN1S(=O)(=O)c1cc2ccccc2o1)[C@@H](c1ccc(F)cc1)c1cc(F)cc(F)c1 [Example 372, (2S,3S)-2-amino-N-(2-(2-((S)-1-(benzofuran-2-ylsulfonyl)piperazin-2-yl)ethyl)-3-fluorophenyl)-3-(3,5-difluorophenyl)-3-(4-fluorophenyl)propanamide]	–	14 nM	–
Cc1ccc(S(=O)(=O)N2CCNC[C@@H]2CCc2c(F)cccc2NC(=O)[C@@H](N)[C@@H](c2ccc(F)cc2)c2cc(F)cc(F)c2)o1 [Example 373, (2S,3S)-2-amino-3-(3,5-difluorophenyl)-N-(3-fluoro-2-(2-((S)-1-((5-methylfuran-2-yl)sulfonyl)piperazin-2-yl)ethyl)phenyl)-3-(4-fluorophenyl)propanamide]	–	4.2 nM	–
methyl ((S)-1-((2R,4r,6S)-4- (4-chlorophenyl)-2,6- dimethyltetrahydro-2H- pyran-4-yl)-2-((3-fluoro-2-(2- ((2S,6S)-6-methyl-1- (phenylsulfonyl)piperazin-2- yl)ethyl)phenyl)amino)-2- oxoethyl)carbamate [Example 299]	–	–	IC50 ([2]; MT4-GFP cells infected with HIV-1 H9IIIB): 16 nM
